Entries after “also recorded” stand apart in the source; their conditions may differ. One block for each molecule: values may come before it. Ends that are not written are not given here.
What was measured:
[1] = Solubility testing of parent and truncated peptides (protocol not stated); type: physicochemical
Excerpt: For example, the amino acid sequence of CJI-44.8 (SEQ ID NO: 132) was derived from the protein sequence of Cry j I by first identifying those regions of the parent protein with high T cell reactivity using the set of overlapping peptides 20-mers as discussed in Example 6, and shown in FIG. 13, which covered the entire sequence. […] Since these peptides were adjacent to each other in the native protein sequence and overlapped by 10 residues, peptide CJI-44 was synthesized to capture the total T cell reactivity of both peptides. CJI-44 (SEQ ID NO: 90) (FIG. 18) is a peptide 30-mer which contains all of the sequence present in the two 20-mers CJI-31 (SEQ ID NO: 54) and CJI-32 (SEQ ID NO: 56).
(§1) Additional truncation of two C-terminal residues yielded 44.2 (SEQ ID NO: ). […] Thus, 44.2 (SEQ ID NO: ) was further modified by the addition of charged (hydrophilic residues) to the N-terminus and by replacement of the hydrophobic residue Val with the less hydrophobic residue Ala. […] CJI-44.8 (SEQ ID NO: 132) was stable and soluble at greater than 5 mg/ml over the pH range pH6-pH8 in an aqueous buffer.

[2] = Solubility, single pH point protocol procedure; type: physicochemical; conditions: 100 mM sodium phosphate buffer without mannitol, constant agitation
Description: as §1

[3] = Solubility, pH range protocol procedure; type: physicochemical; conditions: aqueous sodium phosphate buffer, pH range pH6 to pH8
Excerpt: (§2) Of the above group of modified peptides, several peptides have been identified as “unique” modified peptides. […] Certain modified peptides are characterized as “unique” due to the difficulties encountered when developing a modified peptide which meets all of the stringent requirements of a “unique” peptide defined herein. In many cases, multiple modifications of a parent peptide are attempted prior to identifying a modified derivitive peptide which meets all the characteristics of a “unique” modified peptide. Unique modified peptides are particularly useful as candidate peptides for formulating injectable multipeptide therapeutic formulations of the invention because “unique” modified peptides are soluble and stable in the same physiologically acceptable pH range as well as elicit the necessary T cell reactivity of a therapeutic peptide of the invention. “Unique” modified peptides of the invention include but are not limited to the following group of modified peptides: CJ1-24.5, CJ1-43.39, CJ1-43.50, CJ1-44.8, and CJ1-44.9 all as shown in FIGS. 20 and 44. Example 21 describes the development and identification of “unique” modified peptides of the invention.
as §1

[4] = Stability in aqueous buffer; type: physicochemical; conditions: pH6 to pH8
Excerpt: as §2, §1

IgE antibodies = conditions: Sakaguchi (1990), cited from earlier work
patients' plasma IgE = assay: Direct binding assay of IgE to Cry j I, Cry j II and recombinant Cry j II (Example 18); design: species or system human
Description: Costar assay plates were coated with Cry j I or Cry j II at 2 μg/mL or recombinant Cry j II preparation at 10 μg/mL (approximately 20% pure) in a volume of 50 μL overnight at 4° C. The coating antigens were removed and the wells were blocked with 0.5% gelatin, PVP (polyvinyl pyrolidine) 1 mg/mL in PBS, 200 μL/well for 2 hours at room temperature. The anti-Cry j I monoclonal antibody, 4B11, was serially diluted in PBS-Tween 20 starting at a 1:1000 dilution. The human plasma were serially diluted in PBS-Tween at a starting dilution of 1:2. For this set 23 plasma samples from patients symptomatic for Japanese cedar pollen allergy chosen for IgE binding analysis. The first antibody incubation proceeded overnight at 4° C. Following three washes with PBS-Tween the second antibodies were added (biotinylated goat anti-mouse Ig or goat anti-human IgE both at 1:2000) and incubated for two hours at room temperature at 100 μL/well. After washing 3 times, […]. This solution was removed and streptavidin-HRPO diluted to 1:10,000, was added at 100 μL/well. The color was allowed to develop for 2-5 minutes. The reaction was stopped by the addition of 100 μL/well of 1M phosphoric acid. Plates were read on a Microplate IL310 Autoreader (Biotek Instruments, Winooski, Vt.) with a 450 nm filter. The absorbance levels of duplicate wells were averaged. A positive binding result, indicated by a plus sign is determined to be a reading of two-fold or greater above background (no first antibody) at the second dilution of plasma ([…]).

[5] = test system: Cry j II reactive T cells; assay: T cell proliferation assay, Cry j II primed T cell lines (Example 19); type: cell-based, human
Description: Long term T cell lines were established by stimulation of 2×10^6 PBL/ml in bulk cultures of complete medium (RPMI-1640, 2 mM L-glutamine, 100 U/ml penicillin/streptomycin, 5×10^−5M 2-mercaptoethanol, and 10 mM HEPES supplemented with 5% heat inactivated human AB serum) with 10 μg/ml of partially purified native Cry j II for 7 days at 37° C. in a humidified 5% CO2 incubator to select for Cry j II reactive T cells. This amount of priming antigen was determined to be optimal for the activation of T cells from most Japanese cedar pollen Cry j II allergic patients. Viable cells were purified by LSM centrifugation and cultured in complete medium supplemented with 5 units recombinant human IL-2/ml and 5 units recombinant human IL-4/ml for up to three weeks until the cells no longer responded to lymphokines and were considered “rested”. The ability of the T cells to proliferate to peptides Cry j IIA (SEQ ID NO: 185) and Cry j IIB (SEQ ID NO: 186), recombinant Cry j II (rCry j II) (SEQ ID NO: 134), purified native Cry j II, was then assessed. For assay, 2×10^4 rested cells were restimulated in the presence of 2×10^4 autologous Epstein-Barr virus (EBV)-transformed B cells (prepared as described in Example 6) (gamma-irradiated with 25,000 RADS) with 2-50 ’g/ml of rCry j II (SEQ ID NO: 134), purified native Cry j II, peptides Cry j IIA (SEQ ID NO: 185) and Cry j IIB (SEQ ID NO: 186), positive control (PHA), negative control (Amb a I.1), in a volume of […] complete medium in duplicate or triplicate wells in 96-well round bottom plates for 2-4 days. […] Each well then received 1 μCi tritiated thymidine for 16-20 hours. The counts incorporated were collected onto glass fiber filter mats and processed for liquid scintillation counting. The maximum response in a titration of each peptide is expressed as the stimulation index (S.I.). The S.I. is the counts per minute (CPM) incorporated by cells in response to peptide, divided by the CPM incorporated by cells in medium only. A positivity index may be calculated by multiplying the mean S.I. (indicated above each bar in FIGS. 42 and 43) by the percentage of individuals responding to the peptide (indicated in parentheses above each bar in FIGS. 42 and 43). […]

Arthus reaction = conditions: Usui et al. (1990); cited from earlier work

Molecule: NGAYFVSSGKYEGGNIYTKKEAFN [CJ1-44.2]
solubility ([1]; truncated analogs of CJI-44): solubility was improved in these sequences it still did not reach the standard

Molecule: NGAYFVSSGKYEGGNIYTKKEAFNVE [CJ1-44.1]
solubility ([1]; truncated analogs of CJI-44): solubility was improved in these sequences it still did not reach the standard

Molecule: DEEGAYFVSSGKYEGGNIYTKKEAFNVE [CJ1-44.8]
solubility [3]: > 5000 µg/mL
solubility [2]: very soluble
stability [4]: stable

B2: Sugi basic protein (i.e., Cry j I)-pullulan conjugate: Sugi basic protein covalently linked to pullulan, Usui et al. (1990) (conjugate, UniProt P18632 22-374, looked up)
Pectate lyase 1: DNPIDSCWRGDSNWAQNRMKLADCAVGFGSSTMGGKGGDLYTVTNSDDDPVNPAPGTLRYGATRDRPLWIIFSGNMNIKLKMPMYIAGYKTFDGRGAQVYIGNGGPCVFIKRVSNVIIHGLYLYGCSTSVLGNVLINESFGVEPVHPQDGDALTLRTATNIWIDHNSFSNSSDGLVDVTLTSTGVTISNNLFFNHHKVMLLGHDDAYSDDKSMKVTVAFNQFGPNCGQRMPRARYGLVHVANNNYDPWTIYAIGGSSNPTILSEGNSFTAPNESYKKQVTIRIGCKTSSSCSNWVWQSTQDVFYNGAYFVSSGKYEGGNIYTKKEAFNVENGNATPQLTKNAGVLTCSLSKRC
modifications: pullulan conjugate
ability to elicit the Arthus reaction, relative to native Sugi basic protein (Arthus reaction): about 1,000 times lower

Continued, in another order:

solubility ([1]; protocol not stated, read-out: solubility): < 5000 µg/mL
Molecule: DVFYNGAYFVSSGKYEGGNIYTKKEAFNVE [CJ1-44]

solubility [2]: increased solubility
Molecule: DENGAYFVSSGKYEGGNIYTKKEAFNAE [CJ1-44.5]

solubility [2]: increased solubility
Molecule: DEENGAYFVSSGKYEGGNIYTKKEAFNVE [CJ1-44.6]

frequency of IgE response (patients' plasma IgE; 23 plasma samples, FIG. 40): less
plasma IgE binding response (patients' plasma IgE; patient #1034): very strong reactivity
B1: purified native Cry j II: second Japanese cedar pollen allergen, purified native protein (protein)
chain: RKVEHSRHDAINIFNVEKYGAVGDGKHDCTEAFSTAWQAACKNPSAMLLVPGSKKFVVNNLFFNGPCQPHFTFKVDGIIAAYQNPASWKNNRIWLQFAKLTGFTLMGKGVIDGQGKQWWAGQCKWVNGREICNDRDRPTAIKFDFSTGLIIQGLKLMNSPEFHLVFGNCEGVKIIGISITAPRDSPNTDGIDIFASKNFHLQKNTIGTGDDCVAIGTGSSNIVIEDLICGPGHGISIGSLGRENSRAEVSYVHVNGAKFIDTQNGLRIKTWQGGSGMASHIIYENVEMINSENPILINQFYCTSASACQNQRSAVQIQDVTYKNIRGTSATAAAIQLKCSDSMPCKDIKLSDISLKLTSGKIASCLNDNANGYFSGHVIPACKNLSPSAKRKESKSHKHPKTVMVENMRAYDKGNRTRILLGSRPPNCTNKCHGCSPCKAKLVIVHRIMPQEYYPQRWICSCHGKIYHP
immunological cross-reactivity with Cry j I (IgE antibodies; Kawashima et al. (1992)): no immunological cross-reactivity
allergic patients with IgE that only reacted with this allergen (IgE antibodies): 14%
plasma IgE binding response (patients' plasma IgE; patient plasma samples, FIGS. 31-33): binds human IgE of some allergic patients; also recorded: lower overall response
T cell proliferative response ([5]; 9 patients, FIG. 43): react
T cell proliferative response ([5]; n=6 patients, FIG. 42): respond well
